Measurements from US8673910B2, “Proteasome inhibitors for selectively inducing apoptosis in cancer cells” (H. Lee Moffitt Cancer Center and Research Institute, priority 2008, dated 2014).

Assays:
[1] = system: MCF-7/MCF-10A, T-80-Hras/T-80, C7-Kras/C7 cells; experiment: TUNEL assay, apoptosis in cancer and non-transformed cell pairs; type: cell-based, human; conditions: 3 pairs of cell lines, 24 h
Protocol: Terminal deoxynucleotidyl transferase-mediated nick-end labeling (TUNEL) was used to determine the extent of DNA strand breaks (Kazi et al., 2004). The assay was performed with the APO-Direct Kit following the manufacturer's instructions. In brief, the harvested cells were fixed in 1% paraformaldehyde for 45 minutes on ice, washed twice with PBS, and then fixed again in 70% ethanol at −20° C. overnight. The cells were then incubated in DNA labeling solution (containing terminal deoxynucleotidyl transferase (TdT) enzyme, fluorescence-conjugated dUTP and reaction buffer) for 60 minutes at 37° C. After rinsing the cells to remove the DNA labeling solution, the cells were incubated with the propidium iodide/RNase A solution, incubated for 30 minutes at room temperature in the dark, and analyzed by flow cytometry within 3 hours of staining.

[2] = system: CT-L activity of rabbit 20S proteasome; experiment: Dialysis using purified rabbit 20S proteasome; type: biochemical; conditions: compound 10 μM, 30 min pre-incubation at 37° C.
Protocol: To measure the effect of dialysis on CT-L activity, compounds (10 μM) or vehicle (0.1% DMSO) were added to rabbit 20S proteasome (225 ng) (Boston Biochem) in proteasome assay buffer (50 mM Tris-HCl, pH 7.6) and incubated at 37° C. for 30 min. After 30 min of incubation, proteasome-compound mixtures were added to 10,000 MWCO Thermo Scientific Slide-A-Lyzer Dialysis Cassette (Rockford, Ill.) and dialyzed against proteasome assay buffer. Immediately (t=0) and 0.5 h, 1 h, 2 h, 4 h, and 18 h of dialysis at 4° C., samples were removed from the dialysis cassette and the CT-L 20S proteasome activity was determined. Proteasome activity was normalized against proteasome activity of DMSO control.

[3] = system: p27^Kip1 protein in A549 tumors; experiment: Western blot of p27Kip1 in A549 tumor lysates; type: in vivo; conditions: A549-bearing nude mice
Protocol: Cell lysates (50 μg) were separated by SDS-PAGE and transferred to a nitrocellulose membrane, probed with p27^Kip1 and β-actin antibodies, and signals were visualized by enhanced chemoluminescence (ECL, Amersham, Piscataway, N.J.) according to the manufacturer's protocol.

CC(C)C[C@H](NC(=O)[C@H](Cc1ccccc1)NC(=O)c1cnccn1)B(O)O [Bortezomib, reference compound]
apoptosis (TUNEL) [1]: induced little apoptosis in any of the cell lines | inhibition of CT-L activity of the 20S proteasome in the absence of dialysis [2]: 99% | treated tumors with dramatic upregulation of p27^Kip1 protein [3]: 4 out of 4
